Patent US10899932B2, “Non-amphoteric, quaternisable and water-soluble polymers for modifying the surface charge of solid particles” (priority 2014, dated 2021)

Experiment: Zeta potential measurement of aqueous suspensions of powders (Coulter DELSA 440 SX)
Format: physicochemical
Conditions: aqueous suspension, pH 4
Excerpt: The zeta potential can be determined directly from the direction and velocity of migration of the dispersed particles in an electrical field, on the basis of the following relation:
[formula] • ζ=zeta potential (in mV) • ε=dielectric constant of the dispersion medium • v=electrophoretic migration velocity (in cm/s) • η=viscosity of the dispersion medium (poise, 1 poise=0.1 Pa·s) • E=field strength (in […]) • f=numerical factor (friction factor), dependent on the shape of the particles, their conductivity, and the size of the particles in comparison to the thickness of the diffuse double layer
The migration velocity here is measured, depending on the size of the particles under investigation, either by means of observation through a light microscope or, particularly in the case of relatively small particles, by means of laser correlation spectroscopy.
The zeta potential of the aqueous suspensions of boron nitride, silicon carbide, diamond, deltamethrin and azoxystrobin powders, all produced in analogy to the example above, was determined as follows. The measurement took place with a Coulter DELSA 440 SX instrument. […] This reversal of the original surface charge was verified for the inventive particles by the experimental measurements below.

| Structure (SMILES) | Zeta potential |
| --- | --- |
| CC1(C)[C@H](C(=O)O[C@H](C#N)c2cccc(Oc3ccccc3)c2)[C@@H]1C=C(Br)Br [CE7, Deltamethrin] | −32 mV |
| CO/C=C(/C(=O)OC)c1ccccc1Oc1cc(Oc2ccccc2C#N)ncn1 [CE8, Azoxystrobin] | −36 mV |
